Read-outs that look alike come from different tables or passages of the source.
Target: T1, Recombinant human TPH1 (MBP tagged) (Homo sapiens, UniProt P17752)
T1 construct: cloning full length human TPH1 cDNA in to a bacterial pMAL-c5E expression vector; made in house; host or cells: E. coli BL21 (DE3)
T1 sequence (P17752 1-444): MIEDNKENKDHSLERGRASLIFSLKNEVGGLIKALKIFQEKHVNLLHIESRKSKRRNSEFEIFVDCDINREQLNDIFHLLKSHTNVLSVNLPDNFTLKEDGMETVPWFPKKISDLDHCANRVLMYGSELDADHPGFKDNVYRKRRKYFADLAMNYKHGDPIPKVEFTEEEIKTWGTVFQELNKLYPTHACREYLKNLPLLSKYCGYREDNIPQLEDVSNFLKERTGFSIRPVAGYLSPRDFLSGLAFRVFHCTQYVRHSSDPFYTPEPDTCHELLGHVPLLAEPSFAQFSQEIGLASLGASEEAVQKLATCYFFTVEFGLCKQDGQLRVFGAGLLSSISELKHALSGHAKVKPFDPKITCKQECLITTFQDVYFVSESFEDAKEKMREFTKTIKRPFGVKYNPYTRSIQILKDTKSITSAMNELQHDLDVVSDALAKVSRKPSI
Assay: TPH1 in vitro inhibition assay (kinetic fluorescence)
Format: biochemical
Procedure, shortened: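 Final mix: 15 nM MBP-TPH1, 30 μM Trp, 36 μM 6-methyltetrahydropterin, 25 μM ferrous ammonium sulfate, 50 mM MES pH 7.1, 1% DMSO, room temperature.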

[1] = read-out: TPH1 Range (TPH1 inhibition IC50)
[2] = TPH1 Range (TPH1 inhibition IC50)

Row | SMILES | IC50 [1] | IC50 [2]
1 | CCOc1ccc(-c2ccc([C@@H](Oc3cc(N4CCC5(CC4)CN[C@H](C(=O)O)C5)nc(N)n3)C(F)(F)F)c(-n3ccc(C)n3)c2)cn1 [Example 1cs, (S)-8-(2-amino-6-((R)-1-(4-(6-ethoxypyridin-3-yl)-2-(3-methyl-1H-pyrazol-1-yl)phenyl)-2,2,2-trifluoroethoxy)pyrimidin-4-yl)-2,8-diazaspiro[4.5]decane-3-carboxylic acid] | < 50 nM | –
2 | COc1ncccc1-c1ccc([C@@H](Oc2cc(N3CCC4(CC3)CN[C@H](C(=O)O)C4)nc(C)n2)C(F)(F)F)c(-n2ccc(C)n2)c1 [Example 29k, (S)-8-(2-methyl-6-((R)-2,2,2-trifluoro-1-(4-(2-methoxypyridin-3-yl)-2-(3-methyl-1H-pyrazol-1-yl)phenyl)ethoxy)pyrimidin-4-yl)-2,8-diazaspiro[4.5]decane-3-carboxylic acid] | 50 to 300 nM | –
3 | Cc1ccn(-c2cc(-c3cccc(OC(C)C)c3)ccc2[C@@H](Oc2cc(N3CCC4(CC3)CN[C@H](C(=O)O)C4)nc(N)n2)C(F)(F)F)n1 [Example 1bc, (S)-8-(2-amino-6-((R)-2,2,2-trifluoro-1-(3′-isopropoxy-3-(3-methyl-1H-pyrazol-1-yl)-[1,1′-biphenyl]-4-yl)ethoxy)pyrimidin-4-yl)-2,8-diazaspiro[4.5]decane-3-carboxylic acid] | < 50 nM | –
4 | Cc1ccn(-c2cc(-c3ccc(OC(C)C)c(C)c3)ccc2[C@@H](Oc2cc(N3CCC4(CC3)CN[C@H](C(=O)O)C4)nc(N)n2)C(F)(F)F)n1 [Example 1by, (S)-8-(2-amino-6-((R)-2,2,2-trifluoro-1-(4′-isopropoxy-3′-methyl-3-(3-methyl-1H-pyrazol-1-yl)-[1,1′-biphenyl]-4-yl)ethoxy)pyrimidin-4-yl)-2,8-diazaspiro[4.5]decane-3-carboxylic acid] | < 50 nM | –
5 | CCOC(=O)c1ccccc1-c1ccc(-n2ccc(C)n2)c([C@@H](Oc2cc(N3CCC4(CC3)CN[C@H](C(=O)O)C4)nc(N)n2)C(F)(F)F)c1 [Example 20, (S)-8-(2-amino-6-((R)-1-(2′-(ethoxycarbonyl)-4-(3-methyl-1H-pyrazol-1-yl)-[1,1′-biphenyl]-3-yl)-2,2,2-trifluoroethoxy)pyrimidin-4-yl)-2,8-diazaspiro[4.5]decane-3-carboxylic acid] | < 50 nM | –
6 | Cc1ccn(-c2ccc(-c3ccc(C)c(C)c3)cc2[C@@H](Oc2cc(N3CCC4(CC3)CN[C@H](C(=O)O)C4)nc(N)n2)C(F)(F)F)n1 [Example 19e, (S)-8-(2-amino-6-((R)-1-(3′,4′-dimethyl-4-(3-methyl-1H-pyrazol-1-yl)-[1,1′-biphenyl]-3-yl)-2,2,2-trifluoroethoxy)pyrimidin-4-yl)-2,8-diazaspiro[4.5] decane-3-carboxylic acid] | < 50 nM | –
7 | COc1ccc([C@@H](Oc2cc(N3CCC4(CC3)CN[C@H](C(=O)O)C4)nc(N)n2)C(F)(F)F)c(-n2ccc(C)n2)c1 [Example 10l, (S)-8-(2-amino-6-((R)-2,2,2-trifluoro-1-(4-methoxy-2-(3-methyl-1H-pyrazol-1-yl)phenyl)ethoxy)pyrimidin-4-yl)-2,8-diazaspiro[4.5]decane-3-carboxylic acid] | 50 to 300 nM | –

Continued, values first:

Row | IC50 [1] | IC50 [2] | SMILES
8 | 50 to 300 nM | – | Nc1nc(O[C@H](c2ccc(Cl)cc2-c2ccc([N+](=O)[O-])cc2)C(F)(F)F)cc(N2CCC3(CC2)CNC(C(=O)O)C3)n1 (stereo partly drawn) [Example 34g, 8-(2-amino-6-((R)-1-(5-chloro-4′-nitro-[1,1′-biphenyl]-2-yl)-2,2,2-trifluoroethoxy)pyrimidin-4-yl)-2,8-diazaspiro[4.5]decane-3-carboxylic acid]
9 | 50 to 300 nM | – | Nc1nc(O[C@H](c2ccc(-c3ccc(C(=O)N4CCNCC4)cc3)cc2)C(F)(F)F)cc(N2CCC3(CC2)CN[C@H](C(=O)O)C3)n1 [Example 55dl, (S)-8-(2-amino-6-((R)-2,2,2-trifluoro-1-(4′-(piperazine-1-carbonyl)-[1,1′-biphenyl]-4-yl)ethoxy)pyrimidin-4-yl)-2,8-diazaspiro[4.5]decane-3-carboxylic acid]
10 | 50 to 300 nM | – | COc1ccc(C)c(-c2ccc([C@@H](Oc3cc(N4CCC5(CC4)CN[C@H](C(=O)O)C5)nc(N)n3)C(F)(F)F)cc2)c1 [Example 55p, (S)-8-(2-amino-6-((R)-2,2,2-trifluoro-1-(5′-methoxy-2′-methyl-[1,1′-biphenyl]-4-yl)ethoxy)pyrimidin-4-yl)-2,8-diazaspiro[4.5]decane-3-carboxylic acid]
11 | 300 to 3000 nM | – | Nc1nc(O[C@H](c2ccc(Cl)cc2-c2cccc(C(=O)NCCN3CCCC3)c2)C(F)(F)F)cc(N2CCC3(CC2)CN[C@H](C(=O)O)C3)n1 [Example 34cf, (S)-8-(2-amino-6-((R)-1-(5-chloro-3′-((2-(pyrrolidin-1-yl)ethyl)carbamoyl)-[1,1′-biphenyl]-2-yl)-2,2,2-trifluoroethoxy)pyrimidin-4-yl)-2,8-diazaspiro[4.5]decane-3-carboxylic acid]
12 | 50 to 300 nM | – | CCc1cc(-c2ccc3ncc(F)cc3c2)ccc1[C@@H](Oc1cc(N2CCC3(CC2)CN[C@H](C(=O)O)C3)nc(N)n1)C(F)(F)F [Example 59d, (S)-8-(2-amino-6-((R)-1-(2-ethyl-4-(3-fluoroquinolin-6-yl)phenyl)-2,2,2-trifluoroethoxy)pyrimidin-4-yl)-2,8-diazaspiro[4.5]decane-3-carboxylic acid]
13 | 50 to 300 nM | – | COc1ccc(-c2ccc([C@@H](Oc3cc(N4CCC5(CC4)CN[C@H](C(=O)O)C5)nc(N)n3)C(F)(F)F)cc2)cc1 [Example 55aq, (S)-8-(2-amino-6-((R)-2,2,2-trifluoro-1-(4′-methoxy-[1,1′-biphenyl]-4-yl)ethoxy)pyrimidin-4-yl)-2,8-diazaspiro[4.5]decane-3-carboxylic acid]
14 | 300 to 3000 nM | – | COc1cccc(-c2ccc([C@@H](Oc3cc(N4CCC5(CC4)CN[C@H](C(=O)O)C5)nc(N)n3)C(F)(F)F)cc2)c1F [Example 55bm, (S)-8-(2-amino-6-((R)-2,2,2-trifluoro-1-(2′-fluoro-3′-methoxy-[1,1′-biphenyl]-4-yl)ethoxy)pyrimidin-4-yl)-2,8-diazaspiro[4.5]decane-3-carboxylic acid]
15 | 50 to 300 nM | – | CCS(=O)(=O)c1cccc(-c2cc(Cl)ccc2[C@@H](Oc2cc(N3CCC4(CC3)CN[C@H](C(=O)O)C4)nc(N)n2)C(F)(F)F)c1 [Example 34j, (S)-8-(2-amino-6-((R)-1-(5-chloro-3′-(ethylsulfonyl)-[1,1′-biphenyl]-2-yl)-2,2,2-trifluoroethoxy)pyrimidin-4-yl)-2,8-diazaspiro[4.5]decane-3-carboxylic acid]
16 | 50 to 300 nM | – | Nc1nc(O[C@H](c2ccc(Cl)cc2-n2cnc3ccccc32)C(F)(F)F)cc(N2CCC3(CC2)CN[C@H](C(=O)O)C3)n1 [Example 36b, (S)-8-(6-((R)-1-(2-(1H-benzo[d]imidazol-1-yl)-4-chlorophenyl)-2,2,2-trifluoroethoxy)-2-aminopyrimidin-4-yl)-2,8-diazaspiro[4.5]decane-3-carboxylic acid]
17 | 300 to 3000 nM | – | Nc1nc(O[C@H](c2ccc(-c3cccc(CO)c3)cc2)C(F)(F)F)cc(N2CCC3(CC2)CN[C@H](C(=O)O)C3)n1 [Example 55bt, (S)-8-(2-amino-6-((R)-2,2,2-trifluoro-1-(3′-(hydroxymethyl)-[1,1′-biphenyl]-4-yl)ethoxy)pyrimidin-4-yl)-2,8-diazaspiro[4.5]decane-3-carboxylic acid]
18 | – | 50 to 300 nM | CS(=O)(=O)Nc1cccc(-c2cc(Cl)ccc2[C@@H](Oc2cc(N3CCC4(CC3)CN[C@H](C(=O)O)C4)nc(N)n2)C(F)(F)F)c1 [Example 34n, (S)-8-(2-amino-6-((R)-1-(5-chloro-3′-(methylsulfonamido)-[1,1′-biphenyl]-2-yl)-2,2,2-trifluoroethoxy)pyrimidin-4-yl)-2,8-diazaspiro[4.5]decane-3-carboxylic acid]
19 | 300 to 3000 nM | – | CC(C)Oc1ccc(-c2ccc([C@@H](Oc3cc(N4CCC5(CC4)CN[C@H](C(=O)O)C5)nc(N)n3)C(F)(F)F)cc2)cc1 [Example 55bv, (S)-8-(2-amino-6-((R)-2,2,2-trifluoro-1-(4′-isopropoxy-[1,1′-biphenyl]-4-yl)ethoxy)pyrimidin-4-yl)-2,8-diazaspiro[4.5]decane-3-carboxylic acid]
20 | – | 50 to 300 nM | Nc1nc(O[C@H](c2ccc(Cl)cc2-c2ccc(Cl)cc2)C(F)(F)F)cc(N2CCC3(CC2)CN[C@H](C(=O)O)C3)n1 [Example 34bw, (S)-8-(2-amino-6-((R)-1-(4′,5-dichloro-[1,1′-biphenyl]-2-yl)-2,2,2-trifluoroethoxy)pyrimidin-4-yl)-2,8-diazaspiro[4.5]decane-3-carboxylic acid]
21 | < 50 nM | – | Cc1ccc(-c2ccc([C@@H](Oc3cc(N4CCC5(CC4)CN[C@H](C(=O)O)C5)nc(N)n3)C(F)(F)F)c(-c3cccc(S(C)(=O)=O)c3)c2)cc1C [Example 52a, (S)-8-(2-Amino-6-((R)-1-(3,4-dimethyl-3″-(methylsulfonyl)-[1,1′:3′,1″-terphenyl]-4′-yl)-2,2,2-trifluoroethoxy)pyrimidin-4-yl)-2,8-diazaspiro[4.5]decane-3-carboxylic acid]
22 | 50 to 300 nM | – | Cc1cc(-c2cc(Cl)ccc2[C@@H](Oc2cc(N3CCC4(CC3)CN[C@H](C(=O)O)C4)nc(N)n2)C(F)(F)F)cc(C(C)(C)C)c1 [Example 34bm, (S)-8-(2-amino-6-((R)-1-(3′-(tert-butyl)-5-chloro-5′-methyl-[1,1′-biphenyl]-2-yl)-2,2,2-trifluoroethoxy)pyrimidin-4-yl)-2,8-diazaspiro[4.5]decane-3-carboxylic acid]

Source: patent publication US11759462B2, “Spirocyclic compounds as tryptophan hydroxylase inhibitors” (priority 2013, dated 2023)
